Experimental data published in patent EP1996603B1, “LIPID A ANTAGONISTS WITH ANTI-SEPTIC SHOCK, ANTI-INFLAMMATORY, ANTI-ISCHEMIA AND ANALGESIC ACTIVITY” (Università Degli Studi Di Milano - Bicocca, priority 2006, dated 2007).

Experiments:
[1] = system: ischemia-induced EEG flattening; experiment: Cerebral ischemia by bilateral carotid occlusion, EEG spectral power; format: in vivo, Mongolian gerbils (Meriones unguiculatus); settings: 10 mg/kg i.p. 30 min before bilateral carotid occlusion; starting from 1 hour after recirculation
Experimental: After implanting EEG electrodes, the gerbils were divided into different groups on the basis of the assigned treatment. Their electroencephalogram (EEG) was recorded for 1 h a day, for three days, to determine the basal total and relative spectral power. The signals were recorded and processed for fast Fourier transform spectral analysis by means of PC software (PowerLab, AD Instruments, Pty, Ltd, Australia). EEG recordings were also made for seven days after ischemia. After basal EEG recordings, each gerbil was again lightly anaesthetised and 10-min. ischemia was induced by bilateral common carotid arteries occlusion. The ischemia was verified qualitatively on paper by the complete flattening of the EEG. A group of animals (sham-operated) underwent the same surgical procedure except that the carotid arteries were not clamped. Compound Id was i.p. administered to the animals at the dose of 10 mg/kg 30 minutes before ischemia induction.

TLR2 = experiment: TNFα production after stimulation with Pam3Cys-SK4 (TLR2 selectivity); format: cell-based, Mouse; settings: stimulation with Pam3Cys-SK4, specific for TLR2
Experimental: • Figure 1. Antagonistic activity of compounds Ia, Ic and Id on lipid A-stimulated cytokine production in BMDC, BMØ and D1 cells. TNFα production was measured in the supernatants 24 h later. From the right: lipid A (0.5µM), cells treated with lipid A alone; DMSO: cells incubated in the presence of complete medium plus DMSO; inhibitor 50 µM, cells treated only with monosaccharides Ia, Ic and Id; other columns, lipid A + compounds […] at increasing doses. The data represent means and standard deviations of triplicate wells. This is a representative of three independent experiments. *, p < 0.05; **, p < 0.01; ***, p< 0.001. • Figure 2. TLR-4 selectivity of monosaccharide Id. […] IL-1β was measured in the supernatants by ELISA. […] Lower panels, TNFα production measured by ELISA 24 h after stimulation with CpG (selective for TLR-9) or PAM3Cys-SK4 (selective for TLR-2) in the presence of compound Id. […] The cells were then analyzed by FACS for the presence of annexin V and propidium iodide (PI) double positive cells. […] NF-kB activation was evaluated in the nuclear extract 2 h later and expressed as optical density (OD) at 450 nm. […] Effect of different doses of compound Id on carrageenan induced edema in mice measured 4h after the exposure and expressed as difference between the paw volume of treated paw versus the contralateral paw. […]

neuropathic mice = experiment: Neuropathic pain after sciatic nerve ligation (plantar test, Von Frey test); format: in vivo, mice C57BL/6J; settings: i.p. 5 mg/kg once a day for one week starting the day after surgery
Experimental: Male mice C57BL/6J were anesthetized with sodium pentobarbital (65 mg/kg, i.p.) and submitted to surgery to induce neuropathic pain. […] Sham animals (sciatic exposure without ligation) were used as controls. The animal pain response was monitored before surgery, on day 7 (24 h after the last administration). Compound (Id) was administered i.p. at 5 mg/kg once a day starting the day after the surgery. Heat hypersensitivity was tested according to the Hargreaves' procedure using the plantar test (Ugo Basile, Varese, Italy). Mechanical allodynia was measured using the Von Frey test.

Which “ischemia-induced EEG flattening” value [1] does the source give for `CCCCCCCCCCCCCCO[C@H]1[C@@H](OC)O[C@H](C[N+](C)(C)C2CCCC2)[C@@H](O)[C@@H]1OCCCCCCCCCCCCCC` [Compound Id, methyl 6-deoxy-6-N,N',N"-dimethylcyclopentylammonium-2,3-di-O-tetradecyl-α-D-glucopyranoside] here?
The value was “able to significantly antagonize the ischemia-induced EEG flattening”.

And the TNFα production (TLR2)?
The TNFα production was “not inhibited”.

What about the mechanical allodynia (neuropathic mice; Von Frey test) of the same molecule?
The mechanical allodynia was “significant relief”.

What about the thermal hyperalgesia (neuropathic mice; plantar test) of the same molecule?
Its thermal hyperalgesia is “significant relief”.
